Here are results for one molecule from patent publication US6395745B1, “Alkaloid halide salts of swainsonine and methods of use” (priority 1997, dated 2002).

Assay [1] relates to granulocyte-macrophage progenitor cells (CFU-GM). The assay can be described thus: Murine bone marrow progenitor cell assay in methylcellulose, CFU-GM. The note with it: FIG. 11. It is filed as cell-based, C57BL/6 mouse. The method, then: The healthy and GD0039 treated mice were euthanized by CO2 asphyxiation. Bone marrow (BM) cell suspensions were prepared under sterile conditions by flushing both femurs and tibiae with IMDM/FBS using a 26 gauge needle. Single cell suspensions were made up to 10.0 ml IMDM/FBS. The concentration of nucleated cells in each suspension was determined by triplicate counts on a hemocytometer. A portion of the cells was further diluted in media to the appropriate concentration before plating for the progenitor assay.
Colony-forming units (CFUs) were estimated by the methylcellulose method. One milliliter suspensions, containing 2×10^5 nucleated BM cells, in 0.1 ml of IMDM and 0.9 ml MethoCult (M3330), were plated in triplicate in 35 mm tissue culture dishes. Swainsonine hydrochloride or swainsonine were added to certain plates, in 0.1 ml of IMDM at concentrations of 30 μg/ml and 3 μg/ml, which gave final concentrations of […]. The MethoCult M3330 contains 30% FBS and 10 μg/ml erythropoietin and is designed for the growth of early erythroid progenitor cells (CFU-E), which were scored after 3 days of incubation at 37° C. in a humidified atmosphere containing 5% CO2. […] Colonies containing more than 20 cells were scored using an inverted microscope with brightfield optics and 40× or 100× magnification. […]

The target of assay [2] is T1, purified rat liver Golgi mannosidase II (Rattus norvegicus, UniProt P28494).
T1 construct: 15 μl of purified rat liver Golgi mannosidase II; from tissue; host or cells: rat liver
T1 sequence (P28494 1-1148): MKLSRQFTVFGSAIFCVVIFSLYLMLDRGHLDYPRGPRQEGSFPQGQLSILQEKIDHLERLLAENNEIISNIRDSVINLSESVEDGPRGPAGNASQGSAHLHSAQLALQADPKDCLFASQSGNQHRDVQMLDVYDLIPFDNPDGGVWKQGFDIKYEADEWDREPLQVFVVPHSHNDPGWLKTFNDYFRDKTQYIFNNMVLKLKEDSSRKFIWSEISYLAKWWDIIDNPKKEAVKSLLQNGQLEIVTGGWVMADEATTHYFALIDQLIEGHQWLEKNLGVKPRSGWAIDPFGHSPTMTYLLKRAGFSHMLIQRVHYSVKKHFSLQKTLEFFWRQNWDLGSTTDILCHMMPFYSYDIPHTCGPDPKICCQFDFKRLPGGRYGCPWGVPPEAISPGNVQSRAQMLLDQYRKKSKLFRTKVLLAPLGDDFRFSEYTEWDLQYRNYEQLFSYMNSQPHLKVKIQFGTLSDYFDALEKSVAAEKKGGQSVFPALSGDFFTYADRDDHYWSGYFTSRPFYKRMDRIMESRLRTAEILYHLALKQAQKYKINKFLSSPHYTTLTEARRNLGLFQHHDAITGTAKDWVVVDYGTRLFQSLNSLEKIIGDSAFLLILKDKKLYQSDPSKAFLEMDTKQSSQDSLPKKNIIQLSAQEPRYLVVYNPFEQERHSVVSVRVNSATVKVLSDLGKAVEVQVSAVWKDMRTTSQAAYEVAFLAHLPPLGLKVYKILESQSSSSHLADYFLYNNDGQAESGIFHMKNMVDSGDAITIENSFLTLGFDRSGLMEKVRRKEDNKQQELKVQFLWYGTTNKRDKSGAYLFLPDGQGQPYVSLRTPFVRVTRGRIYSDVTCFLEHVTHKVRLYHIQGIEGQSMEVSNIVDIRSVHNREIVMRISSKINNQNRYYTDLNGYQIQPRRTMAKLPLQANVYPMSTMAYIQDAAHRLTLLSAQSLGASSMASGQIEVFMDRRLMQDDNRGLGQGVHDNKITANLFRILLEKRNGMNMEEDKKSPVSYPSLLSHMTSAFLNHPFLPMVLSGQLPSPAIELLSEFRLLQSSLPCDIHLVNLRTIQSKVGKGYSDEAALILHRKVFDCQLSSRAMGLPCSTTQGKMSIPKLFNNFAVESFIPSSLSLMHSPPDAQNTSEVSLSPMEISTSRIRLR
Briefly: Inhibition of purified Golgi mannosidase II in vitro (p-nitrophenyl mannopyranoside). The assay is classed as biochemical. The note with it: pH 5.6, 60 minutes at 37° C. The method, then:
The test compound swainsonine is prepared by 0.4 serial dilution of a 40 μM stock. Present in each determination is 10 μl diluted test compound, 25 μl of 10 mM paranitrophenyl mannopyranoside, 200 mM sodium acetate, pH 5.6 and 15 μl of purified rat liver Golgi mannosidase II. After incubating the reaction for 60 minutes at 37° C., the reaction is quenched with 50 μl of 0.5 M sodium carbonate. Absorption is read at […]. After subtracting the blank from positive controls and samples, the samples are normalized against the positive control mean using a variable slope, sigmoidal curve fit, with bottom=0, top=100. The signal is proportional to the amount of products from the uninhibited reaction.

Assay [3] concerns SP1.A3a mouse mammary carcinoma cells. Briefly: Growth factor dependent proliferation of SP1.A3a cells in vitro (tritiated thymidine). The assay is classed as cell-based. The note with it: 0.2 μg/ml, FIG. 7. The method, then: SP1.A3a mouse mammary carcinoma cells were grown for 24 hours in culture medium containing 10% bovine serum, with and without swainsonine hydrochloride at a concentration of 0.2 μg/ml. In the following 24 hours cells were maintained in serum-free medium (SFM) with and without swainsonine hydrochloride. Cells were then grown in the absence of growth factors for 6 hours, or exposed to one of the following growth factors: TNFα (tumor necrosis factor-α), TGFβ1 (transforming growth factor-β), TGFα, platelet-derived growth factor (PDGF), epidermal growth factor (EGF). Tritiated thymidine was added for a final 18 hours, cells were harvested using a multiple-cell harvester and radioactivity was measured in a β-counter as a measure of cell proliferation.

`Cl.O[C@H]1[C@H]2[C@H](O)CCCN2C[C@@H]1O` [swainsonine hydrochloride, (−)-(1S,2S,8R,8aR)-1,2,8-trihydroxyoctahydro-indolizidine hydrochloride salt]: in assay [1], the “effect on granulocyte-macrophage progenitor cells in vitro” value is “stimulate”. Also, inhibition in assay [2] was half-maximal at 68 ± 21 nM (IC50). Moreover, in assay [3], the “TGF-β1 and TNF-α dependent growth stimulation of SP1.A3a cells” value is “suppresses”.

Broadly, the IC50 is the point on the concentration scale where inhibition reaches its midpoint. Read a high IC50 as a need for much substance.
